Read-outs that look alike come from different tables or passages of the source.
Columns and labels:
[1] = target: T1, cloned α1b-adrenoceptor subtype (Homo sapiens, UniProt P35368); assay: Radioligand binding assay ([3H]prazosin), cloned α1b-adrenoceptor subtype; conditions: read-out: Binding Affinity (Ki nM) α1b
T1 construct: expressed in transfected cells
T1 sequence (P35368 1-520): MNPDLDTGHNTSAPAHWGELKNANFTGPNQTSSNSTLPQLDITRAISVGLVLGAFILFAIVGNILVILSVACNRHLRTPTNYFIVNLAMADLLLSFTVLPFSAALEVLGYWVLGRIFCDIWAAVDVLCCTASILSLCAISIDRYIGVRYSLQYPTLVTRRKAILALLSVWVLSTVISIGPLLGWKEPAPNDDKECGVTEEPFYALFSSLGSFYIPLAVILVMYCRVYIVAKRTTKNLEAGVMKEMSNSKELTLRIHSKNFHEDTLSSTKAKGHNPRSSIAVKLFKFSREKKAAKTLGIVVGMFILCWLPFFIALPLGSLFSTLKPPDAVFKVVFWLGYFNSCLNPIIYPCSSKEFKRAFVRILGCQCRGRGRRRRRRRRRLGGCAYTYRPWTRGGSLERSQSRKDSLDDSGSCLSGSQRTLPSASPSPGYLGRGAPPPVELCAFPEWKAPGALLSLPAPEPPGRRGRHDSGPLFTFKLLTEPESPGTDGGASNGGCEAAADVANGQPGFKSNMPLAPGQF
Procedure: (§1) Springer-Verlag, pp. 10-12). […] The results from these assays are used to calculate a measure of receptor selectivity, expressed as the ratio of affinities (Ki) for a given pair of receptors.
(§2) Determination of affinity for cloned subtypes of α1-adrenoceptor subtypes was performed in membranes from cells transfected by electroporation with DNA expressing the genes encoding each α1-adrenoceptor subtype.
(§3) Non-specific binding was determined in the presence of 10 μM phentolamine. Incubation was stopped by addition of ice-cold Tris buffer and rapid filtration through 0.2% polyethyleneimine-pretreated Schleicher & Schuell GF52 filters. […] Data were expressed as mean Ki.

[2] = target: T2, cloned α1d-adrenoceptor subtype (Homo sapiens, UniProt P25100); assay: Radioligand binding assay ([3H]prazosin), cloned α1d-adrenoceptor subtype; conditions: read-out: Binding Affinity (Ki nM) α1d
T2 construct: expressed in transfected cells
T2 sequence (P25100 1-572): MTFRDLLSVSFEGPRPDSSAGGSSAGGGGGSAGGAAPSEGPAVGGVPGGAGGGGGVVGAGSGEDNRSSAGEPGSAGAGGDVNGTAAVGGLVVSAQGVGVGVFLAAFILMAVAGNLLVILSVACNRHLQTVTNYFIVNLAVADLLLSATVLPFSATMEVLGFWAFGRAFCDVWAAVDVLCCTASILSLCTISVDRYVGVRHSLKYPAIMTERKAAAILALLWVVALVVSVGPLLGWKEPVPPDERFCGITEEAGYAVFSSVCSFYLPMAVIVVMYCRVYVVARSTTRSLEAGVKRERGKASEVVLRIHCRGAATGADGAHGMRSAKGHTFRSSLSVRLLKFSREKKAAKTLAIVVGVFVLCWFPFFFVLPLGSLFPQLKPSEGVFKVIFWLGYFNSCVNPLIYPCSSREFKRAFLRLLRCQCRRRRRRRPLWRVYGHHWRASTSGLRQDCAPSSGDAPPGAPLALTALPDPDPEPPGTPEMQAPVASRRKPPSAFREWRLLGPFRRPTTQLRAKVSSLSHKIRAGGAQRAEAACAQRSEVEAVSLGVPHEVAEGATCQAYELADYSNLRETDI
Procedure: as §1, §2, §3

[3] = tested on: conscious rats with partial urethral obstruction; assay: Cystometry in conscious rats obstructed by partial urethra ligature (unstable-bladder contractions); type: in vivo, rat; conditions: for inhibition in vivo at 0.3 mg/kg / inhibition in vivo at 1 mg/kg / inhibition in vivo at 0.1 mg/kg / inhibition in vivo at 3 mg/kg: 2 min; for Amplitude of non-effective micturition contractions, After Treat. / Frequency (number) of non-effective micturition contractions, After Treat.: after treatment; for Activity as inhibitors of unstable-bladder contractions (in words): obstructed conscious rats, summary of Tables 1 and 2
From the text: A useful animal model system for measuring such pharmacological activity is, without limitation, cystometry in conscious rats with partial bladder-neck obstruction. […] This model is reported in the literature as related to LUTS occurring in patients having obstructive urethral syndromes (Michel, 2000, Drugs of Today. 386 (Supp. B2): 3-6)
In order to obtain a partial obstruction of the urethra, the method previously reported by Malgren (Nalgren et al., 1987, J. Urol. 137:1291-1294; 1988, Neurourol. Urodyn. 6:371), was followed with minor modifications (Guarneri et al., 1991, Pharmacol. Res. 24:263).
Female rats of the Sprague-Dawley strain [Crl:CD(SD)BR, from Charles River Italia, Calco, Como, Italy] weighing 225-275 g were used. The animals were maintained in constant temperature and humidity conditions, on a forced 12-hour light-dark cycle and with food and water ad libitum for at least one week before the experiment.
After being anaesthetized with 3 ml/kg i.p. equitensin (pentobarbital 1.215 g, chloral hydrate 5.312 g, magnesium sulphate 2.657 g, ethanol 12.5 ml, propylene glycol 49.5 ml, distilled water to 125 ml of final volume), the rats were placed in a supine position and the bladder and urethra were exposed via an incision in the shaven abdomens and gently pulling away the muscle portion. The urethra was cannulated with a polyethylene tube with an outside diameter of 1.22 mm, and the urinary bladder was then emptied and, via the cannula introduced through the urethra, filled with physiological saline. A silk (Ethicon 3/0) ligature was placed around the urethra with the cannula inside and the intraurethral cannula was then removed. The abdominal incision was sutured and, immediately after the operative procedure, antibiotic medication (penicillin G 200 000 I.U./kg i.p. and streptomycin 260 mg/kg i.p.) was performed.
Three weeks after the procedure for partially obstructing the urethra, the animals were prepared for cystometry by surgical insertion into the bladder of a catheter, through which the bladder was gradually filled.
The rats, anaesthetised with equitensin 3 ml/kg i.p., were placed in a supine position and, via an incision of about 10 mm in the abdominal wall, the urinary bladder was exposed and gently freed from surrounding tissues.
The urinary bladder was emptied manually and cannulated, via a small incision at the bladder top, with a polyethylene cannula (type PE-50, 0.58 mm I.D. ×0.96 mm O.D.), which was permanently secured to the bladder with silk thread.
The cannula was exposed through a subcutaneous tunnel in the retroscapular area, where it was fastened with a plastic adapter, in order to avoid the risk of removal by the animal. After washing the urinary bladder with physiological saline, the catheter was sealed using a small flame and the abdominal incision was sutured.
To allow evaluation of the effect of a test compound after intravenous administration, the jugular vein was cannulated with a polyethylene cannula (type PE-50, 0.58 mm I.D.×0.96 mm O.D.) filled with heparinised physiological saline. As for the bladder catheter, this cannula, too, was exteriorised, secured and sealed in the retroscapular area.
Two days after the operation, the rats, fasted overnight, were placed in Bollman's cages or in Bollman's cages modified so as to have an opening in the bottom to allow collection of urinated fluid.
After an adaptation period of 20 minutes, the free end of the bladder cannula was connected to a pressure transducer and a special apparatus which allowed infusion into the urinary bladder of physiological saline at 37° C. at a constant rate of 10 ml/hour. Intravesical pressure changes caused by bladder filling were recorded by the pressure transducer which was connected to a recording polygraph.
From the cystometrograms, the frequency and mean amplitude of spontaneous bladder contractions not inducing micturition, termed “unstable-bladder contractions” (UBC), within 2 minutes prior to micturition were evaluated. […]

[4] = target: T3, cloned α1a-adrenoceptor subtype (Homo sapiens, UniProt P35348); assay: Radioligand binding assay ([3H]prazosin), cloned α1a-adrenoceptor subtype; conditions: read-out: Binding Affinity (Ki nM) α1a
T3 construct: expressed in transfected cells
T3 sequence (P35348 1-466): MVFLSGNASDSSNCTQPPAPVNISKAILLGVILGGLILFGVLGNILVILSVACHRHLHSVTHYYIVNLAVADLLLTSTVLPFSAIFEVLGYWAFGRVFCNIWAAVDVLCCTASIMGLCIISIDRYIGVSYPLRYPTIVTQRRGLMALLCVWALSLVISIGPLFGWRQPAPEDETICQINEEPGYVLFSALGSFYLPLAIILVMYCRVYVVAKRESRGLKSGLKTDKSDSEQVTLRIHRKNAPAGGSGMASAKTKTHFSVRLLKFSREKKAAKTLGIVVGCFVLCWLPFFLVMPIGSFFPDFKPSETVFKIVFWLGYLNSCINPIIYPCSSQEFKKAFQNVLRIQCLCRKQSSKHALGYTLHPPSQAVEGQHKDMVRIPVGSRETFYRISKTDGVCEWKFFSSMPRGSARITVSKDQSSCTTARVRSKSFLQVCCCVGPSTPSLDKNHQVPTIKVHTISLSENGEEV
Procedure: as §1, §2, §3

[5] = obstructed rat, 0.3 mg/kg, 2 minutes before micturition, read-out: % inhibition of amplitude of non-effective micturition contractions
[6] = obstructed rat, 0.3 mg/kg, 2 minutes before micturition, read-out: % inhibition of frequency of non-effective micturition contractions
[7] = obstructed rat, 1 mg/kg, 2 minutes before micturition, read-out: % inhibition of amplitude of non-effective micturition contractions
[8] = obstructed rat, 1 mg/kg, 2 minutes before micturition, read-out: % inhibition of frequency of non-effective micturition contractions
[9] = cloned receptor, cell membranes, 0.2 nM [3H]prazosin, mean Ki
[10] = Rattus norvegicus, read-out: % inhibition of amplitude of non-effective micturition contractions
[11] = Rattus norvegicus, read-out: % inhibition of frequency of non-effective micturition contractions

Ki [1]	Ki [2]	Ki [4]	SMILES	inhibition in vivo at 1 mg/kg [3, 7]	inhibition in vivo at 1 mg/kg [3, 8]	Amplitude of non-effective micturition contractions, After Treat. ([3]; 1.0 mg/kg)	Frequency (number) of non-effective micturition contractions, After Treat. ([3]; 1.0 mg/kg)	Activity as inhibitors of unstable-bladder contractions (in words) [3]	further results
11 nM	0.11 nM	–	O=C1CC2(CCCC2)CCN1CCN1CCN(c2cc(Cl)ccc2Cl)CC1 [Rec 26D/073]	18%	25%	7.5 ± 1.2 mmHg	4.4 ± 0.7	poorly active	inhibition in vivo at 0.3 mg/kg [3, 5]: 16%; inhibition in vivo at 0.3 mg/kg [3, 6]: 31%; Amplitude of non-effective micturition contractions, After Treat. ([3]; 0.3 mg/kg): 6.2 ± 1.6 mmHg; Frequency (number) of non-effective micturition contractions, After Treat. ([3]; 0.3 mg/kg): 2.8 ± 0.7
–	2.7 nM	0.8 nM	COc1ccc(Cl)cc1N1CCN(CCCNC(=O)c2c(-c3ccccc3)noc2C)CC1 [Compound B, N-{3-[4-(5-Chloro-2-methoxyphenyl)-1-piperazinyl]propyl}-5-methyl-3-phenylisoxazole-4-carboxamide]	44%	49%	4.2 ± 1.0 mmHg	3.0 ± 0.7	more potent	Ki [1, 9]: 23.6 nM
19 nM	0.13 nM	–	O=C1CC2(CCCC2)CC(=O)N1CCN1CCN(c2cc(Cl)ccc2Cl)CC1 [Rec 26D/038]	21%	27%	7.5 ± 1.6 mmHg	4.5 ± 1.2	poorly active	inhibition in vivo at 0.3 mg/kg [3, 5]: 39%; inhibition in vivo at 0.3 mg/kg [3, 6]: 38%; Amplitude of non-effective micturition contractions, After Treat. ([3]; 0.3 mg/kg): 6.6 ± 1.5 mmHg; Frequency (number) of non-effective micturition contractions, After Treat. ([3]; 0.3 mg/kg): 3.6 ± 0.7
–	0.33 nM	0.05 nM	Cc1onc(-c2ccccc2)c1C(=O)NCCCN1CCN(c2cc(F)ccc2OCC(F)(F)F)CC1 [Compound C, N-{3-[4-[5-fluoro-2-(2,2,2-trifluoroethoxy)phenyl]-1-piperazinyl]propyl}-3-phenyl-5-methylisoxazole-4-carboxamide]	–	–	–	–	–	–
14.1 nM	0.49 nM	0.07 nM	Cc1onc(-c2ccccc2Cl)c1C(=O)NCCCN1CCN(c2ccccc2OCC(F)(F)F)CC1 [Compound D, 3-(2-chlorophenyl)-5-methyl-N-{3-[4-[2-(2,2,2-trifluoroethoxy)phenyl]-1-piperazinyl]propy}isoxazole-4-carboxamide]	73%	68%	2.1 ± 0.7 mmHg	1.7 ± 0.8	more potent	–

SMILES	Ki [1]	Ki [2]	Ki [4]	inhibition in vivo at 1 mg/kg [3, 7]	inhibition in vivo at 1 mg/kg [3, 8]	Amplitude of non-effective micturition contractions, After Treat. ([3]; 1.0 mg/kg)	Frequency (number) of non-effective micturition contractions, After Treat. ([3]; 1.0 mg/kg)	Activity as inhibitors of unstable-bladder contractions (in words) [3]	further results
CCOc1ccccc1OCCN[C@H](C)Cc1ccc(OC)c(S(N)(=O)=O)c1 [Tamsulosin, tamsulosin]	0.94 nM	–	–	–	–	–	–	very potent	Ki [2, 9]: 0.16 nM; inhibition in vivo at 0.1 mg/kg ([3]; obstructed rat, 0.1 mg/kg, 2 minutes before micturition, read-out: % inhibition of amplitude of non-effective micturition contractions): 52%; inhibition in vivo at 0.1 mg/kg ([3]; obstructed rat, 0.1 mg/kg, 2 minutes before micturition, read-out: % inhibition of frequency of non-effective micturition contractions): 61%; Amplitude of non-effective micturition contractions, After Treat. ([3]; 0.1 mg/kg): 3.7 ± 1.1 mmHg; Frequency (number) of non-effective micturition contractions, After Treat. ([3]; 0.1 mg/kg): 1.9 ± 0.7
Cc1onc(-c2ccccc2)c1C(=O)NCCCN1CCN(c2ccc(F)cc2OCC(F)(F)F)CC1 [Rec 27/0110]	–	18.9 nM	0.35 nM	–	–	6.0 ± 1.4 mmHg	4.4 ± 0.8	poorly active	Ki [1, 9]: 69 nM; inhibition in vivo at 1 mg/kg [3, 10]: 21%; inhibition in vivo at 3 mg/kg [3, 10]: 53%; inhibition in vivo at 1 mg/kg [3, 11]: 27%; inhibition in vivo at 3 mg/kg [3, 11]: 49%; Amplitude of non-effective micturition contractions, After Treat. ([3]; 3.0 mg/kg): 2.3 ± 0.8 mmHg; Frequency (number) of non-effective micturition contractions, After Treat. ([3]; 3.0 mg/kg): 2.2 ± 0.7
